Data reported in paper PMC12287315 (Nature Communications, 2025).

What was measured:
GPR139 [1] = molecular target: T1, GPR139 (Homo sapiens, UniProt Q6DWJ6); assay: CalFluxVTN BRET calcium assay, GPR139-transfected HEK293T/17 cells; assay type: cell-based; details: in words
T1 sequence (Q6DWJ6 1-353): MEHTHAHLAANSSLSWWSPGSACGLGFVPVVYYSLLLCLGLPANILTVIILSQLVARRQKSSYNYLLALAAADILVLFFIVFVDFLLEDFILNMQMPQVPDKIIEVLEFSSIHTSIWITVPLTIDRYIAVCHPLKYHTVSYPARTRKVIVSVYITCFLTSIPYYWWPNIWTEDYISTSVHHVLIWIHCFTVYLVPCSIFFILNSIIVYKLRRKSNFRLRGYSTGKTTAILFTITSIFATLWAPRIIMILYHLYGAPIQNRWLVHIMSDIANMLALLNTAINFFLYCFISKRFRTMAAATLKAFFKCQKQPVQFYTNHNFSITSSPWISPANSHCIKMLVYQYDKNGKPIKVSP

MHb neurons [2] = assay: Live calcium imaging; assay type: cell-based, mouse; details: in words
[3] = test system: NAc neurons of Pdyn-Cre mice; assay type: cell-based, mouse; details: 10 μM JNJ-3792165; in words
[4] = test system: GPR139-SmBit / β-arrestin2; assay: NanoBiT β-arrestin2 recruitment assay; assay type: cell-based, human
[5] = test system: GPR139-SmBit / β-arrestin1; assay: NanoBiT β-arrestin1 recruitment assay; assay type: cell-based, human
MHb neurons [6] = assay type: cell-based, mouse
GPR139 / Gα11 = assay: G protein BRET assay, Gα11 activation; assay type: cell-based, human; details: in words; for GPR139 coupling activity with Gα11: 10 µM
GPR139 / GαoA = assay: G protein BRET assay, GαoA activation; assay type: cell-based, human; details: 10 µM; in words
GPR139 [7] = molecular target: T1, GPR139; assay type: binding; details: in words
HiBit-GPR139 = assay: HiBiT-GPR139 surface abundance / internalization assay, HEK293T/17 cells; details: 40 μM Dyngo-4a, 10 μM PitStop 2, 4 mM MβCD applied 15 min before; 40 μM Dyn A13; in words

In the case of `Cc1cccc(NC(=O)c2cc(C)n(Cc3c(Cl)cccc3Cl)n2)c1` [JNJ-3792165], the “effect of antagonist on peptide-induced Ca2+ responses” value (GPR139 [1]; 10 μM JNJ-3792165) is reported as “blocked”, the “effect on Dyn A17-induced Ca2+ response” value (MHb neurons [2]) is reported as “completely blocked” and the “effect on jGCaMP7s response to optogenetic stimulation” value [3] is reported as “completely abolished”.
`C[C@H](NC(=O)CNC(=O)c1cccc(Cl)c1)c1ccccc1` [JNJ-63533054] was tested, and the “β-arrestin 2 recruitment to GPR139” value [4] was “did not observe recruitment of β-arrestins” and the “β-arrestin 1 recruitment to GPR139” value [5] was “did not observe recruitment of β-arrestins”.
For `C=CCN1CC[C@]23c4c5ccc(O)c4O[C@H]2C(=O)CC[C@@]3(O)[C@H]1C5` [naloxone], the “effect on Dyn A17 inhibition of neuronal firing” value (MHb neurons [6]) was “blocked” and the “block of G protein activation by GPR139” value (GPR139 / Gα11; 100 µM Naloxone, 5 µM Dyn A17) was “did not block G protein activation by GPR139”.
“L-enk: inactive Leu-enkephalin as a negative control” was tested, and the “GPR139 coupling activity with Gα11” value (GPR139 / Gα11) was “Neither did we observe G protein activation”, the “GPR139 coupling activity with GαoA” value (GPR139 / GαoA) was “Neither did we observe G protein activation” and the “competition with [3H]-JNJ-63533054 binding” value (GPR139 [7]) was “no competition”.
For “adrenocorticotropic hormone (SYSMEHFRWGKPVGKKRRPVKVYPNGAEDESAEAFPLEF; Corticotropin; UniProt P01189 138-176, looked up) [ACTH]”, the “GPR139 coupling activity with Gα11” value (GPR139 / Gα11) was “did not show any significant coupling activity”, the “GPR139 coupling activity with GαoA” value (GPR139 / GαoA) was “did not show any significant coupling activity” and the “competition with [3H]-JNJ-63533054 binding” value (GPR139 [7]) was “only modest binding”. The “CalFluxVTN signal compared to control cells not expressing GPR139” value (GPR139 [1]; 10 μM, 3 independent experiments) was “significant signals”.
For methyl-beta-cyclodextrin [MβCD], the “effect on Dyn A13-mediated GPR139 internalization” value (HiBit-GPR139) was “had no effect”.
In the case of α-MSH, the “GPR139 coupling activity with Gα11” value (GPR139 / Gα11) is reported as “did not show any significant coupling activity” and the “GPR139 coupling activity with GαoA” value (GPR139 / GαoA) is reported as “did not show any significant coupling activity”.
